Experimental data as given in US20260327214A1, “1,3,4-OXADIAZOLE DERIVATIVE COMPOUNDS AS HISTONE DEACETYLASE 6 INHIBITOR, AND USES THEREOF” (CHONG KUN DANG PHARMACEUTICAL CORP., priority 2022, published 2026).

Experiments:
human recombinant HDAC1 = target: T1, human recombinant HDAC1 (Homo sapiens, UniProt Q13547); experiment: HDAC1 enzyme activity inhibition test (HDAC Fluorometric Drug Discovery Kit); type: biochemical; conditions: 30° C., 60 minutes, 10 μM substrate
T1 construct: purchased Enzo Life Science BML-SE456
T1 sequence (Q13547 whole entry): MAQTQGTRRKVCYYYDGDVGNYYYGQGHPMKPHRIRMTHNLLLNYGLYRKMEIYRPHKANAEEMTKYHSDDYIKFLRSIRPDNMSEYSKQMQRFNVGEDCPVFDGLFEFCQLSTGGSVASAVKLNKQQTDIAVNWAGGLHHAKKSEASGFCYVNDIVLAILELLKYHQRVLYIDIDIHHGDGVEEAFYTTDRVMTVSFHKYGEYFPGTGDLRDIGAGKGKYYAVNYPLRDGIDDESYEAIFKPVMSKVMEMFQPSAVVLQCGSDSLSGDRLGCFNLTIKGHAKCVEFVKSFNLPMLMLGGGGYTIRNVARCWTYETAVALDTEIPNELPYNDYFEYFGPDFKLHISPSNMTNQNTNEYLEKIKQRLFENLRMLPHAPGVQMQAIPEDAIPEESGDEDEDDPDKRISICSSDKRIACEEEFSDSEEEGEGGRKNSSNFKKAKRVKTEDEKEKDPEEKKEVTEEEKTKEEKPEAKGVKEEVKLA
In short: (§1)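 Recombinant human HDAC1 or HDAC6 (0.3 μg) reacted with 10 μM Fluor de Lys SIRT1 substrate and 5-fold diluted compound for 60 min at 30 °C. Developer II added 30 min; fluorescence read at Ex 360/Em 460 and IC50 calculated.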

human recombinant HDAC6 = target: T2, human recombinant HDAC6 (Homo sapiens, UniProt Q9UBN7); experiment: HDAC6 enzyme activity inhibition test (HDAC Fluorometric Drug Discovery Kit); type: biochemical; conditions: for HDAC6 selectivity (fold): HDAC6 over HDAC1; for IC50: human recombinant HDAC6, same protocol as HDAC1
T2 construct: purchased Calbiochem 382180
T2 sequence (Q9UBN7 1-1215): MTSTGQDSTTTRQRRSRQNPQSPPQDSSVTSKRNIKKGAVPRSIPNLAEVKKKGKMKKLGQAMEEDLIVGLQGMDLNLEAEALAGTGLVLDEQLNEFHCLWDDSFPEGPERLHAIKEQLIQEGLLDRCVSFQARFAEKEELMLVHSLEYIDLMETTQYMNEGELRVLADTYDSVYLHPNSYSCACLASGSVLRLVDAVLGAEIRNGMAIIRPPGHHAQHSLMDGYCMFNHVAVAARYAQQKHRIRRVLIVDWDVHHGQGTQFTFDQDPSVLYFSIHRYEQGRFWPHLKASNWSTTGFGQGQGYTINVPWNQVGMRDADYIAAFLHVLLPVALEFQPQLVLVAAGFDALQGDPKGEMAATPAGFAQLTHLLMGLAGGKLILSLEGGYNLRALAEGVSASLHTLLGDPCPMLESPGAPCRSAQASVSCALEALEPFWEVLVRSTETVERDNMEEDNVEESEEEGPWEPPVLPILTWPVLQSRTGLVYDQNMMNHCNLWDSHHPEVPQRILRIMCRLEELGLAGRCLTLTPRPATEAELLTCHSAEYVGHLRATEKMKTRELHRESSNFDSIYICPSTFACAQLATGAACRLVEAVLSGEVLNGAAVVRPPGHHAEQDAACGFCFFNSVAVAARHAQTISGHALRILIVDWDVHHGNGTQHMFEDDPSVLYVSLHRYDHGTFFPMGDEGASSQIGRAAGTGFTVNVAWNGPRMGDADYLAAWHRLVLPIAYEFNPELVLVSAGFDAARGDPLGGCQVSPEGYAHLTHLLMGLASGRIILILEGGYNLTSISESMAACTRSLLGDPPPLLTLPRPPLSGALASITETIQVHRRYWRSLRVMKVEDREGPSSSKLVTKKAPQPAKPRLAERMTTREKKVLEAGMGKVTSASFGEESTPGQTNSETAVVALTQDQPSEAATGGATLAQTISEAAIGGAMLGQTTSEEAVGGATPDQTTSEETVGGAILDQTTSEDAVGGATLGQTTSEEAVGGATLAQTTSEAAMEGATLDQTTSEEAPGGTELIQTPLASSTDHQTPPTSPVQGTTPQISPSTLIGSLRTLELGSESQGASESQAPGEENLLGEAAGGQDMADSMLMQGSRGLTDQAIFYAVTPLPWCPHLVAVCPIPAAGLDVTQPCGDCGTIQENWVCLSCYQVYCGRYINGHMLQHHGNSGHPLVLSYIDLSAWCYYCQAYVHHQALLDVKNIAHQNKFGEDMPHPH
In short: as §1

Row | IC50 (human recombinant HDAC1) | HDAC6 selectivity (fold) (human recombinant HDAC6) | IC50 (human recombinant HDAC6) | Structure (SMILES)
1 | > 50 µM | 420 fold | 119 nM | O=C1OCC(c2ccccn2)=NN1Cc1ccc(-c2nnc(C(F)F)o2)cn1 [Compound 72, 3-[[5-[5-(difluoromethyl)-1,3,4-oxadiazol-2-yl]-2-pyridyl]methyl]-5-(2-pyridyl)-6H-1,3,4-oxadiazin-2-one]
2 | > 50 µM | 442 fold | 113 nM | O=C1OCC(c2ccccn2)=NN1Cc1ncc(-c2nnc(C(F)F)o2)cc1F [Compound 73, 3-[[5-[5-(difluoromethyl)-1,3,4-oxadiazol-2-yl]-3-fluoro-2-pyridyl]methyl]-5-(2-pyridyl)-6H-1,3,4-oxadiazin-2-one]
3 | > 50 µM | 828 fold | 60.4 nM | O=C1OCC(c2ccc(-c3ccccn3)s2)=NN1Cc1ccc(-c2nnc(C(F)F)o2)cn1 [Compound 74, 3-[[5-[5-(difluoromethyl)-1,3,4-oxadiazol-2-yl]-2-pyridyl]methyl]-5-[5-(2-pyridyl)-2-thienyl]-6H-1,3,4-oxadiazin-2-one]
4 | > 50 µM | 1149 fold | 43.5 nM | CN1CCN(c2cccc(-c3nn(Cc4ccc(-c5nnc(C(F)F)o5)cn4)c(=S)o3)c2)CC1 [Compound 75, 3-[[5-[5-(difluoromethyl)-1,3,4-oxadiazol-2-yl]-2-pyridyl]methyl]-5-[3-(4-methylpiperazin-1-yl)phenyl]-1,3,4-oxadiazol-2-thione]
5 | > 50 µM | 945 fold | 52.9 nM | CC(C)N1CCN(c2cccc(-c3nn(Cc4ccc(-c5nnc(C(F)F)o5)cn4)c(=S)o3)c2)CC1 [Compound 76, 3-[[5-[5-(difluoromethyl)-1,3,4-oxadiazol-2-yl]-2-pyridyl]methyl]-5-[3-(4-isopropylpiperazin-1-yl)phenyl]-1,3,4-oxadiazol-2-thione]
6 | > 50 µM | 669 fold | 74.7 nM | CC(C)N1CCN(Cc2ccc(-c3nn(Cc4ccc(-c5nnc(C(F)F)o5)cn4)c(=S)o3)cc2)CC1 [Compound 77, 3-[[5-[5-(difluoromethyl)-1,3,4-oxadiazol-2-yl]-2-pyridyl]methyl]-5-[4-[(4-isopropylpiperazin-1-yl)methyl]phenyl]-1,3,4-oxadiazol-2-thione]
7 | > 50 µM | 498 fold | 100 nM | FC(F)c1nnc(-c2ccc(Cn3nc(-c4ccc(CN5CCN(C6CCC6)CC5)cc4)oc3=S)nc2)o1 [Compound 78, 5-[4-[(4-cyclobutylpiperazin-1-yl)methyl]phenyl]-3-[[5-[5-(difluoromethyl)-1,3,4-oxadiazol-2-yl]-2-pyridyl]methyl]-1,3,4-oxadiazol-2-thione]
8 | > 50 µM | 461 fold | 108 nM | FC(F)c1nnc(-c2ccc(Cn3nc(-c4ccc(CN5CCN(C6CCCC6)CC5)cc4)oc3=S)nc2)o1 [Compound 79, 5-[4-[(4-cyclopentylpiperazin-1-yl)methyl]phenyl]-3-[[5-[5-(difluoromethyl)-1,3,4-oxadiazol-2-yl]-2-pyridyl]methyl]-1,3,4-oxadiazol-2-thione]
9 | > 50 µM | 649 fold | 77.1 nM | CC(C)N1CCC(c2cccc(-c3nn(Cc4ccc(-c5nnc(C(F)F)o5)cn4)c(=S)o3)c2F)CC1 [Compound 80, 3-[[5-[5-(difluoromethyl)-1,3,4-oxadiazol-2-yl]-2-pyridyl]methyl]-5-[2-fluoro-3-(1-isopropyl-4-piperidyl)phenyl]-1,3,4-oxadiazol-2-thione]
10 | > 50 µM | 576 fold | 86.8 nM | Fc1c(-c2nn(Cc3ccc(-c4nnc(C(F)F)o4)cn3)c(=S)o2)cccc1C1CCN(C2CCC2)CC1 [Compound 81, 5-[3-(1-cyclobutyl-4-piperidyl)-2-fluoro-phenyl]-3-[[5-[5-(difluoromethyl)-1,3,4-oxadiazol-2-yl]-2-pyridyl]methyl]-1,3,4-oxadiazol-2-thione]
11 | > 50 µM | 453 fold | 110 nM | Fc1c(-c2nn(Cc3ccc(-c4nnc(C(F)F)o4)cn3)c(=S)o2)cccc1C1CCN(C2CCCC2)CC1 [Compound 82, 5-[3-(1-cyclopentyl-4-piperidyl)-2-fluoro-phenyl]-3-[[5-[5-(difluoromethyl)-1,3,4-oxadiazol-2-yl]-2-pyridyl]methyl]-1,3,4-oxadiazol-2-thione]
12 | > 50 µM | 554 fold | 90.3 nM | CC(C)N1CCN(Cc2ccc(-c3nn(Cc4ccc(-c5nnc(C(F)F)o5)cn4)c(=O)o3)cc2)CC1 [Compound 83, 3-[[5-[5-(difluoromethyl)-1,3,4-oxadiazol-2-yl]-2-pyridyl]methyl]-5-[4-[(4-isopropylpiperazin-1-yl)methyl]phenyl]-1,3,4-oxadiazol-2-one]
13 | > 50 µM | 497 fold | 101 nM | CN(C)Cc1cccc(-c2nn(Cc3ccc(-c4nnc(C(F)F)o4)cn3)c(=S)o2)c1 [Compound 84, 3-((5-(5-(difluoromethyl)-1,3,4-oxadiazol-2-yl)pyridin-2-yl)methyl)-5-(3-((dimethylamino)methyl)phenyl)-1,3,4-oxadiazol-2(3H)-thione]
14 | > 50 µM | 447 fold | 112 nM | CNCc1cccc(-c2nn(Cc3ccc(-c4nnc(C(F)F)o4)cn3)c(=S)o2)c1 [Compound 85, 3-[[5-[5-(difluoromethyl)-1,3,4-oxadiazol-2-yl]-2-pyridyl]methyl]-5-[3-(methylaminomethyl)phenyl]-1,3,4-oxadiazol-2-thione]
15 | > 50 µM | 760 fold | 65.8 nM | FC(F)c1nnc(-c2ccc(Cn3nc(-c4cccc(CN5CCCC5)c4)oc3=S)nc2)o1 [Compound 86, 3-[[5-[5-(difluoromethyl)-1,3,4-oxadiazol-2-yl]-2-pyridyl]methyl]-5-[3-(pyrrolidin-1-ylmethyl)phenyl]-1,3,4-oxadiazol-2-thione]
16 | > 50 µM | 556 fold | 89.9 nM | FC(F)c1nnc(-c2ccc(Cn3nc(-c4cccc(CN5CCCCC5)c4)oc3=S)nc2)o1 [Compound 87, 3-[[5-[5-(difluoromethyl)-1,3,4-oxadiazol-2-yl]-2-pyridyl]methyl]-5-[3-(1-piperidylmethyl)phenyl]-1,3,4-oxadiazol-2-thione]
17 | > 50 µM | 449 fold | 111 nM | CC1CCN(Cc2cccc(-c3nn(Cc4ccc(-c5nnc(C(F)F)o5)cn4)c(=S)o3)c2)CC1 [Compound 88, 3-[[5-[5-(difluoromethyl)-1,3,4-oxadiazol-2-yl]-2-pyridyl]methyl]-5-[3-[(4-methyl-1-piperidyl)methyl]phenyl]-1,3,4-oxadiazol-2-thione]
18 | > 50 µM | 1027 fold | 48.7 nM | FC(F)c1nnc(-c2ccc(Cn3nc(-c4cccc(CN5CC[C@@H](F)C5)c4)oc3=S)nc2)o1 [Compound 89, 3-[[5-[5-(difluoromethyl)-1,3,4-oxadiazol-2-yl]-2-pyridyl]methyl]-5-[3-[[(3R)-3-fluoropyrrolidin-1-yl]methyl]phenyl]-1,3,4-oxadiazol-2-thione]
19 | > 50 µM | 835 fold | 59.9 nM | FC(F)c1nnc(-c2ccc(Cn3nc(-c4cccc(CN5CC[C@H](F)C5)c4)oc3=S)nc2)o1 [Compound 90, 3-[[5-[5-(difluoromethyl)-1,3,4-oxadiazol-2-yl]-2-pyridyl]methyl]-5-[3-[[(3S)-3-fluoropyrrolidin-1-yl]methyl]phenyl]-1,3,4-oxadiazol-2-thione]
20 | > 50 µM | 1832 fold | 27.3 nM | CN(C)Cc1ccc(-c2nn(Cc3ccc(-c4nnc(C(F)F)o4)cn3)c(=S)o2)cc1 [Compound 91, 3-[[5-[5-(difluoromethyl)-1,3,4-oxadiazol-2-yl]-2-pyridyl]methyl]-5-[4-[(dimethylamino)methyl]phenyl]-1,3,4-oxadiazol-2-thione]
